# Reference: PubChem BioAssay (NCI)
#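 Five concentrations, 48 hours, 96-well plates. Here, GI50 denotes the concentration required for 50% inhibition of growth. Definition used: TGI = concentration required for complete inhibition of growth.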
# How the values were obtained:
# Test in all cases: inhibition of tumour cell growth, NCI panel, 48 h
# [1] = system: MOLT-4 leukemia
# [2] = system: U251 CNS
# [3] = system: COLO 205 colon
# [4] = system: SK-OV-3 ovarian
# [5] = system: OVCAR-5 ovarian
# [6] = system: MDA-MB-435
# [7] = system: NCI/ADR-RES ovarian
# [8] = system: UACC-257 melanoma
# [9] = system: UACC-62 melanoma
# [10] = system: A498 renal
Compound,TGI [1],TGI [2],TGI [3],TGI [4],TGI [5],TGI [6],TGI [7],TGI [8],TGI [9],TGI [10],GI50 [1],GI50 [2],GI50 [4],GI50 [5],GI50 [7],GI50 [9],GI50 [10],GI50 [3],GI50 [6],GI50 [8]
Cc1ccc2ccc3ccc(C)nc3c2n1,> 100 µM,> 100 µM,> 100 µM,> 100 µM,> 100 µM,> 100 µM,> 100 µM,> 100 µM,> 100 µM,> 100 µM,–,–,–,–,–,–,–,–,–,–
Nc1cccc2c1C1=NNC(=O)CC1C2 (stereo not drawn),> 100 µM,> 100 µM,> 100 µM,> 100 µM,> 100 µM,–,> 100 µM,> 100 µM,> 100 µM,> 100 µM,–,–,–,–,–,–,–,–,–,–
CNCCCNC1(c2cc3ccccc3s2)CCCCC1,7.48 µM,16.4 µM,3.8 µM,29.1 µM,27.5 µM,5.86 µM,29.9 µM,3.35 µM,3.87 µM,14.1 µM,–,–,–,–,–,–,–,–,–,–
N#Cc1c(-c2cccc(Cl)c2)cc(-c2ccc(Cl)cc2)nc1N,58.6 µM,30.9 µM,28.6 µM,46.7 µM,42.9 µM,37.6 µM,63.5 µM,36.1 µM,32.7 µM,–,–,–,–,–,–,–,–,–,–,–
CC(C)(O)CO/N=C1\C(c2c(O)[nH]c3ccccc23)=Nc2ccccc21,> 43.1 µM,> 68.4 µM,2.29 µM,2.05 µM,9.3 µM,> 42.3 µM,> 64.8 µM,> 96.4 µM,2.66 µM,3.63 µM,–,–,–,–,–,–,–,–,–,–
Cc1c2cc[n+](C)cc2c(C)c2c1[nH]c1ccc(Cl)cc12,58.4 µM,1.15 µM,10.9 µM,53.3 µM,84.4 µM,> 64.4 µM,> 100 µM,62.3 µM,45.1 µM,1.4 µM,–,–,–,–,–,–,–,–,–,–
CC1=NN(c2cccc(Cl)c2)C(=N/c2nc3ccccc3s2)/C1=C\c1cccs1,95.2 µM,60.2 µM,–,> 100 µM,> 100 µM,> 100 µM,56.5 µM,> 100 µM,–,82.5 µM,–,–,–,–,–,–,–,–,–,–
C[C@H](N[C@H]1CCC[C@]1(O)C#Cc1ccc2c(c1)OCO2)c1ccccc1,> 25 µM,> 25 µM,> 25 µM,> 25 µM,> 25 µM,> 25 µM,> 25 µM,> 25 µM,> 25 µM,> 25 µM,–,–,–,–,–,–,–,–,–,–
C[C@@H](CO)C1=CC(C#C[Si](C)(C)C)N(C(=O)Oc2ccccc2)c2ccccc21 (stereo partly drawn),> 100 µM,35.8 µM,> 100 µM,56.3 µM,57.1 µM,15.5 µM,31.3 µM,38.3 µM,21.9 µM,–,–,–,–,–,–,–,–,–,–,–
c1ccc2sc(C3(N4CCC5(CC4)OCCO5)CCCCC3)cc2c1,> 100 µM,–,> 100 µM,> 100 µM,> 100 µM,> 100 µM,> 100 µM,> 100 µM,> 100 µM,> 100 µM,–,–,–,–,–,–,–,–,–,–
C=Cc1cc(OC)c2c(c1)c(=O)oc1c2cc(OC)c2c(O)ccc(C3OC(C)C(O)C(C)(O)C3O)c21 (stereo not drawn),–,–,0.409 µM,–,–,0.00365 µM,–,–,–,–,1.98e-05 µM,0.000187 µM,0.000565 µM,0.000251 µM,0.000659 µM,0.0012 µM,0.00121 µM,–,–,–
Cc1c(NC(=O)c2cc([N+](=O)[O-])cc([N+](=O)[O-])c2)c(=O)n(-c2ccccc2)n1C,> 100 µM,> 100 µM,52.2 µM,> 100 µM,–,> 100 µM,> 100 µM,> 100 µM,> 100 µM,> 100 µM,–,–,–,–,–,–,–,–,–,–
O=C(Nc1cccc([N+](=O)[O-])c1)C(=O)C(C(=O)c1ccccc1F)C1OC(=O)C2C=CC=CC21 (stereo not drawn),> 100 µM,77.7 µM,> 100 µM,> 100 µM,> 100 µM,–,–,> 100 µM,> 100 µM,> 100 µM,–,–,–,–,–,–,–,–,–,–
N#CCCOCN(CO)c1nc(N(CO)COCCC#N)nc(N(CO)COCCC#N)n1,50.7 µM,> 100 µM,32.3 µM,> 100 µM,> 100 µM,–,–,63.9 µM,–,> 100 µM,–,–,–,–,–,–,–,–,–,–
O=C(Nc1sccc1S(=O)(=O)c1ccc(Cl)cc1)c1ccccc1,> 100 µM,> 100 µM,> 100 µM,> 100 µM,> 100 µM,> 100 µM,> 100 µM,> 100 µM,> 100 µM,> 100 µM,–,–,–,–,–,–,–,–,–,–
O=C1/C(=C/c2ccc(Cl)cc2)N=C(c2ccccc2)N1c1nc2c(Cl)cc(Cl)cc2s1,24.7 µM,50.9 µM,> 100 µM,> 100 µM,> 100 µM,86.2 µM,81.3 µM,> 100 µM,> 100 µM,50.2 µM,–,–,–,–,–,–,–,–,–,–
COc1cc2c(cc1OC)C1Cc3cc(OC)c(OC)cc3C(C2)O1,> 100 µM,> 100 µM,> 100 µM,> 100 µM,> 100 µM,> 100 µM,> 100 µM,> 100 µM,> 100 µM,–,–,–,–,–,–,–,–,–,–,–
O=C(NCCNc1nccc(-c2c(-c3cccc(O)c3)nc3sccn23)n1)Nc1cccc(C(F)(F)F)c1,14.6 µM,23.6 µM,12 µM,–,65.3 µM,4.94 µM,> 100 µM,6.94 µM,6.51 µM,32.6 µM,3.6 µM,4.95 µM,–,16.3 µM,26.9 µM,1.94 µM,7.33 µM,3.36 µM,2.04 µM,2.51 µM
CC(=O)OC[C@@]1(C)[C@@H]2[C@@H]3[C@@]4(CO[C@]3(C)C(=O)[C@@]3(O)C[C@H](C)[C@H](OC(C)=O)[C@@H]3[C@H]4OC(C)=O)[C@H](OC(=O)c3ccccc3)C[C@@H]21,> 100 µM,> 100 µM,> 100 µM,> 100 µM,> 100 µM,> 100 µM,> 100 µM,> 100 µM,> 100 µM,> 100 µM,–,–,–,–,–,–,–,–,–,–
CNS(=O)(=O)c1ccc2[nH]c(O)c(C3=Nc4ccccc4C3=O)c2c1,> 100 µM,39.8 µM,> 100 µM,> 100 µM,> 100 µM,> 100 µM,> 100 µM,> 100 µM,> 100 µM,> 100 µM,–,–,–,–,–,–,–,–,–,–
COc1cc(NC(=O)CSc2nc3ccccc3c(=O)n2CCc2ccccc2)cc(OC)c1OC,> 100 µM,5.2 µM,–,3.69 µM,–,–,> 100 µM,–,–,–,> 100 µM,2.1 µM,1.93 µM,–,3.77 µM,–,–,–,–,–
CCCC1=C(C(=O)OCC)C(c2ccccc2OC)C(C#N)=C(N)O1 (stereo not drawn),89.8 µM,> 100 µM,> 100 µM,> 100 µM,> 100 µM,> 100 µM,> 100 µM,> 100 µM,–,> 100 µM,26.1 µM,44.7 µM,> 100 µM,> 100 µM,37.6 µM,–,62.2 µM,66.3 µM,46.3 µM,65.5 µM
NC(=O)Nc1ccc(C(=O)NCCCNC(=O)c2ccc(NC(N)=O)cc2)cc1,> 100 µM,> 100 µM,> 100 µM,–,> 100 µM,> 100 µM,> 100 µM,> 100 µM,> 100 µM,> 100 µM,–,–,–,–,–,–,–,–,–,–
CSc1ccc(-c2cc(-c3nc4ccccc4[nH]3)nc(N)c2C#N)cc1,37.1 µM,–,34.7 µM,> 100 µM,75.2 µM,47.2 µM,> 100 µM,39.4 µM,26 µM,50 µM,–,–,–,–,–,–,–,–,–,–
O=C1C(c2c(O)[nH]c3ccccc23)=Nc2ccc(Br)cc21,40.8 µM,48 µM,> 100 µM,> 100 µM,> 100 µM,> 100 µM,> 100 µM,> 100 µM,54 µM,21 µM,–,–,–,–,–,–,–,–,–,–
Cc1nc2c(O)cc3c4c(n(Cc5ccccc5)c3c2nc1C)C(=O)CCC4,> 100 µM,64 µM,> 100 µM,69.6 µM,> 100 µM,> 100 µM,> 100 µM,> 100 µM,> 100 µM,> 100 µM,–,–,–,–,–,–,–,–,–,–
CC(=O)N1CC(=O)NC1=S,> 100 µM,> 100 µM,> 100 µM,> 100 µM,> 100 µM,–,–,> 100 µM,> 100 µM,–,–,–,–,–,–,–,–,–,–,–
O=C1C(=c2cc3c(c4ccccc24)=NC24CCCCC2C(c2ccccc2)C=C(c2ccccc2)N34)C(=O)c2ccccc21 (stereo not drawn),64.7 µM,> 100 µM,> 100 µM,> 100 µM,> 100 µM,70.8 µM,–,> 100 µM,–,> 100 µM,–,–,–,–,–,–,–,–,–,–
